Laboratory results as given in US11523610B2, “Regulating plant growth using a diapocarotenoid” (King Abdullah University of Science and Technology, priority 2018, dated 2022).

How the values were obtained:
pDR5rev::GFP seedlings = assay: Confocal microscopy of pDR5rev::GFP auxin marker line; format: in vivo, Arabidopsis
Excerpt: To examine pDR5Rev::GFP fluorescence at the collet region, live seedlings were directly used for laser scanning confocal microscopy (Zeiss LSM 510 microscope) examination.
For fluorescence intensity quantification of pDR5Rev::GFP and pPIN3::PIN3-GFP marker lines, ImageJ software (rsbweb.nih.gov/ij/) was used after taking confocal microscopy photos. All calculations are background subtracted.

rice (Nipponbare) = assay: Rice hydroponic growth with anchorene; format: in vivo; details: 20 μM anchorene, 6 days
Procedure: FIGS. 19A-E show anchorene promotes root growth in rice according to one or more embodiments of the present disclosure. […] Color photographs (B) and (C) show the comparison of the whole rice plant (B) and the root structure (C) under Mock and Anchorene treated conditions. (D) and (E) show quantification (cm) of the primary root length (D) and shoot length (E) under Mock and Anchorene treated conditions. 20 μM anchorene was used. The Nipponbare ecotype rice seeds were germinated for 4 days, and then transferred to Hoagland media hydroponic system with or without anchorene treatment for another 6 days. Anchorene was changed every 2 days for three times.
For rice, sterilized Nipponbare seeds were kept at 30° C. in darkness for 1 day to stimulate germination and transferred to Petri dishes with half strength Murashige and Skoog (MS) media (with 0.5 g/L MES, pH 5.7) and autoclaved filter paper. Dishes were incubated in darkness for 2 days then exposed to light for 1 day in PERCIVAL® growth chamber (12 h light/12 h dark, 26° C., 55% humidity, 500 umol.m^−2.s^−1). Uniform, healthy rice seedlings were transferred to hydroponic culture (Hoagland) supplied with acetone (Mock) or 20 μM anchorene. […] Crown roots number, as well as shoot and root length and fresh weight were recorded to perform the phenotyping.

[1] = tested on: dark grown Arabidopsis seedlings; assay: Adventitious root assay; format: in vivo; details: 5, 10, or 20 μM anchorene, 5 days
Excerpt: ANRs were counted in seedlings vertically grown on half strength MS (with 0.5% sucrose +1% agar, 0.5 g/L MES, pH 5.7) media 8 days post-stratification (dps) using a dissection microscope. To investigate ANR formation after root apical meristems (RAM) excision (ANR-RE), RAM of seedlings were excised using sterile scalpels at 5 dps and then grown for another 3 days prior to counting the number of emerged ANRs. RAM of seedlings were excised at 8 dps and then grown for another 3 days prior to counting the number of emerged LRs. For determining the effect of anchorene on lateral roots, the number of emerged lateral roots were counted using a dissection microscope at 8 dps. For primary root length measurements, seedlings were measured using the publicly available ImageJ software (downloaded from rsbweb.nih.gov/ij/) after taking digital photographs. For adventitious root assay, the number of emerged adventitious roots per plant were counted after 5 days of treatment on plates with or without anchorene.
4-day-old dark grown Arabidopsis seedlings were transferred to plates with 5, 10, or 20 μM anchorene, or without. After 5 additional days of growth, the number of adventitious roots was determined for each seedling.

maize = assay: Maize hydroponic growth with anchorene; format: in vivo
Procedure: FIGS. 20A-C show anchorene promotes root growth in maize according to one or more embodiments of the present disclosure. (A) represents the timeline for the hydroponic system for maize growing and anchorene treatment. […] (C) is a histogram quantifying the root and shoot length (cm) of maize seedlings with or without anchorene treatment
Arabidopsis is a dicot model plant. To test the effect of anchorene on monocot plant and crops, the biological functions of anchorene was evaluated on two important crops, rice and maize, under hydroponic conditions. Excitingly, a clear effect of anchorene on rice primary root and crown root growth (FIGS. 19B-E). A clear effect on shoot growth was not observed during this period, which might indicate anchorene specifically regulates root architecture. Similar effect was also examined in maize (FIGS. 20B-C). […] Root growth promoting not only could better anchor the plant, but also increase the volume of the plant root which will facilitate the water and nutrient absorption for the plant.

**Q.** For `C\C(C=O)=C/C=C/C=C(\C)C=O` [anchorene, 12,12′-diapocarotene-12,12′-dial], which “GFP signal in ANR primordia, combined NF/anchorene treatment” value (pDR5rev::GFP seedlings; 1 μM NF plus 20 μM anchorene) is on record?
**A.** Its value is “clearly enhanced”.

**Q.** And the “GFP signal at the collet / ANR primordia” value (pDR5rev::GFP seedlings; single compound, 20 μM anchorene, 1 μM NF)?
**A.** Its value is “strong GFP signal”.

**Q.** What about the “rice primary root and crown root growth” value (rice (Nipponbare)) of the same compound?
**A.** Its value is “clear effect”.

**Q.** And the rice shoot growth (rice (Nipponbare))?
**A.** Its rice shoot growth is “not observed”.

**Q.** What about the “number of adventitious roots” value [1] of the same compound?
**A.** The value was “significantly increases”.

**Q.** And the “growth of primary root and lateral roots in maize” value (maize)?
**A.** The value was “greatly promoted”.
